# From patent US5618665A, “Enzymatic fluorometric assay for adenylate cyclase” (Regents of the University of Minnesota, priority 1994, dated 1997)
# Experiments:
# adenylate cyclase [1] = test: Adenylate cyclase activity of rabbit cardiac membranes by enzymatic fluorometric assay (ATP-ADP cycling), radioimmunoassay and Salomon's method; type: biochemical; conditions: isoproterenol 10^-7 and 10^-6 M; NaF 10^-2 M; GppNHp 10^-4 M; carbachol 10^-6 M; adenosine 10^-3 M; three methods
# Procedure: Adenylate cyclase activities of six different rabbit cardiac membranes under basal and drug treated conditions were assessed using the fluorometric method of the present invention, radioimmunoassay and original [alpha-^32 P] ATP method developed by Salomon. The first part of the non-radioactive fluorescent technique for measuring adenylate cyclase activity is similar to the method described in Example 2 except that 3-isobutyl-1-methylxanthine (IBMX), rather than theophylline, was used to inhibit phosphodiesterase activity. Furthermore, a series of ATP-ADP enzyme-cycling reactions was used to amplify the cAMP signal, rather then the AMP stimulation of glycogen phosphorylase a utilized in previous examples. Use of the ATP-ADP enzymatic cycling amplification step can lengthen the assay duration, depending upon the desired assay sensitivity.
# A volume of 1.0 μl of either H2 O, isoproterenol, NaF, guanylyl-5'-imidodiphosphate (GppNHp), carbachol, and adenosine was added to each of six reaction tubes on ice. Next, 25 μl of cyclase mix (100 mM Tris-acetate, pH 7.4; 4.2 mM KCl; 10 mM MgCl2; 20 mM phosphoenolpyruvate; 2 mM ATP; 20 μM GTP; 2 mM dithiothreitol; 0.04% bovine serum albumin; 0.2 mM 3-isobutyl-1-methylxanthine (IBMX); 100 μg/ml pyruvate kinase) was added to each reaction tube. The stored membrane was diluted with SET buffer in a concentration of 1.5 mg of protein/ml. Finally, 25 μl of membrane suspension, which contained 37.5 μg of protein, was added to each tube, and the reaction was initiated by placing the tubes in a water bath maintained at 37° C. After 30 minutes, the reaction was terminated by heating at 90° C. for 5 minutes. […] Then, 25 μl of cyclase mix and 25 μl of boiled membrane preparation were added to each tube. After 30 minutes, the reaction was terminated by heating at 90° C. for 5 minutes.
# A volume of 5 μl of reaction of product from Part A was transferred to Pyrex® tubes. For external cAMP standard, a same volume of known amount of cAMP was also added to assay tubes. Newly synthesized cAMP was measured using the following enzymatic fluorometric assay.
# 1. A volume of 25 μl of "cleaning" reaction mix (100 mM Tris HCl, pH 8.0; 2 mM MgCl2; 2 units/ml apyrase; 2.5 units/ml 5'-nucleotidase; 50 μg/ml adenosine deaminase; 20 units/ml alkaline phosphatase) was added to each assay tube. The mixture was incubated at 37° C. for 30 minutes. Enzymes were then destroyed by heating for 10 minutes at 90° C.
# 2. A volume of 25 μl of a phosphodiesterase-containing reaction mix (100 mM Tris-HCl pH 8.0; 2 mM MgCl2; 0.01% bovine serum albumin; 60 μg/m; phosphodiesterase) was added to each assay tube from Step 1. After 60 minutes at 37° C., the assay tubes were heated at 90° C. for 5 minutes.
# 3. A volume of 25 μl of myokinase reaction mix (100 mM Tris-HCl, pH 8.0; 2 mM MgCl2; 225 mM KCl; 200 nM ATP; 8 mM phosphoenolpyruvate; 2 mM dithiothreitol; 0.01% bovine serum albumin; 24 μg/ml myokinase; 50 μg/ml pyruvate kinase) was added to the assay tubes from Step 2. The reactions were incubated at 37° C. for 2 hours.
# 4. […]
# 5. […] After 15 minutes at room temperature, the final concentration of NADPH was measured using a fluorometer (Optical Technology Devices, Inc., New York). The fluorometer was set such that a reading of 1 fluorometric unit was equivalent to 100 pmol of NADPH in 900 μl of buffer (50 mM Tris-HCl, pH 8.0). […]
# adenylate cyclase [2] = test: Radioactive adenylate cyclase assay (modified Salomon, alpha-32P-ATP), rabbit ventricular membranes; type: biochemical, rabbit (New Zealand white); conditions: Iso 10^-6 M; GppNHp 10^-4 M; NaF 10^-2 M; n = 5
# Procedure: Ventricular membrane preparations were prepared from five male New Zealand white rabbits (weight 2.4 kg; W.O.R.K., Philomith, Oreg.) sacrificed by cervical concussion and immediate incision of the heart as previously described. Briefly, hearts were placed in ice-cold SET buffer (0.25M sucrose, 0.1 mM EDTA, 5.0 mM Tris HCl, pH 7.4). Portions (1-2 g) from the ventricular apex were minced and then homogenized in ice-cold SET buffer (1/10, w/v). The homogenate was filtered through a Nitex filter (three layers) (Tetko, Los Angeles, Calif.) and then centrifuged for 20 min. at 1000×g. The pellet was resuspended and centrifuged three more times. The final pellet was resuspended in SET buffer (1.5 mg protein/ml) and stored at -70° C. until enzyme activity was measured.
# A volume of 1.0 μl of either H2 O, NaF, guanylyl-5'-imidodiphosphate (GppNHp), isoproterenol, or isoproterenol+GppNHp were added to each of five reaction tubes and maintained at 0° C. […] Finally 25 μl of membrane suspension ([…]) were added to each tube and the reaction was initiated by placing the tubes in a water bath at 37° C. After 30 minutes, the reaction was terminated by the addition of 300 μl of a stopping solution which contained 0.34 HCl and ^3 H-cAMP, 10,000-20,000 cpm.
# To generate the graph depicted in FIG. 2, 250 μl portions of reaction mixture A and membrane were used and 50 μl samples were removed from the 37° C. bath every 10 minutes, and stopped with 300 μl stopping solution. The assay tubes were heated at 95° C. for 5 minutes. ^32 P-cAMP was isolated using Dowex-alumina chromatography. Recovery, as assessed by ^3 H-cAMP, was 80-95%. All assays were conducted in triplicate. The time course of adenylate cyclase activity (n=5 different rabbit ventricular membrane preparations) is depicted in FIG. 1. Basal AC and agonist stimulated (0.1 mM GppNHp, 0.1 mM) AC are compared. The activity shown is (isoproterenol+GppNHp-stimulated AC activity) minus (GppNHp-stimulated activity). […]
Compound,effect on cAMP production (adenylate cyclase [1]),"Agonist-stimulated adenylate cyclase activity, radioactive assay (adenylate cyclase [2])"
CC(C)NCC(O)c1ccc(O)c(O)c1 (stereo not shown) [isoproterenol],"increased cAMP production, in a concentration-dependent manner",38.3 ± 2.3 pmoles of cAMP/mg/min
"[F-].[Na+] [NaF, Sodium Fluoride]",increased production,106.2 ± 3.5 pmoles of cAMP/mg/min
